The values that follow are results of earlier work, collected in patent US20210319872A1, “DRUG AND DEVICE COMBINATION PRODUCTS WITH IMPROVED SAFETY AND EFFICACY PROFILES” (priority 2016, published 2021).

Read-outs that look alike come from different tables or passages of the source.

Where [1] appears, read: refractory oropharyngeal candidiasis.

With `COC(=O)[C@H](c1ccccc1Cl)N1CCc2sccc2C1` [Clopidogrel (Plavix ®)], for the setting “in vivo”, the Agranulocytosis result was “Hematologic: Agranulocytosis (Less than 1%), Aplastic anemia”; the Aplastic anemia entry is “(less then 1%), Bleeding, Major (0.8% to 3.7%), Pancytopenia”; the “Bleeding, Major” value is on record as “(less then 1%), Bleeding, Major (0.8% to 3.7%), Pancytopenia”; the “Bleeding, Non-major” value is “Hematologic: Bleeding, Non-major (3.6% to 5.1%)”. Moreover, where the note is “in vivo”, the Gastrointestinal hemorrhage result is reported as “Gastrointestinal: Colitis, Gastrointestinal hemorrhage (2%; 2.7%” and the Intraocular hemorrhage entry is on record as “Ophthalmic: Intraocular hemorrhage (0.05%)”.
In the case of `Cc1cc2c(s1)Nc1ccccc1N=C2N1CCN(C)CC1` [Olanzapine (Zyprexa)], for the setting “in vivo”, the Akathisia entry is recorded as “Neurologic: Akathisia (5% to 27%), Asthenia (2% to 20%),”; the Asthenia entry is “Neurologic: Akathisia (5% to 27%), Asthenia (2% to 20%),”; the Constipation result is given as “Gastrointestinal: Constipation (4% to 11%), Xerostomia (Adult, up”; the Dizziness entry was “Dizziness (Adult, 1.6% to 18%; adolescent, 7% to 8%),”. For the same compound, where the note is “in vivo”, the Hyperprolactinemia result is given as “adolescent, up to 14%), Hyperprolactinemia (30% to 61.1%),”; the Increased appetite result is recorded as “Increased appetite (Adult, 3% to 24%; adolescent, 17% to 29%),”; the Orthostatic hypotension entry is given as “Cardiovascular: Orthostatic hypotension (More than 5%),”; the Peripheral edema result is recorded as “Peripheral edema (3% to 6%)”. Further, for the setting “in vivo”, the Personality disorder result is listed as “Psychiatric: Personality disorder (8%)”; the Serum triglycerides raised entry is “Serum triglycerides raised (20.8% to 40%), Weight increased, 7%”; the Somnolence entry is recorded as “Somnolence (IM, 6%; oral, 20% to 52%), Tremor (1% to 23%)”; the Tremor result was “Somnolence (IM, 6%; oral, 20% to 52%), Tremor (1% to 23%)”. For the same compound, the Somnolence entry (in vivo, po) was “Somnolence (IM, 6%; oral, 20% to 52%), Tremor (1% to 23%)”.
Regarding `C[C@H](CS)C(=O)N1CCC[C@H]1C(=O)O` [Captopril (Capoten)], under “in vivo”, the Agranulocytosis entry is recorded as “Hematologic: Agranulocytosis (0.1% to 0.2%), Neutropenia (0.1%”; the Angioedema entry is listed as “Other: Angioedema (0.1%)”; the Cough result is “Respiratory: Cough (0.5% to 2%)”; the Hyperkalemia result is “Endocrine metabolic: Hyperkalemia (11%)”. In addition, the Neutropenia result (in vivo) is “Hematologic: Agranulocytosis (0.1% to 0.2%), Neutropenia (0.1%”.
As for `COc1ccc2c3c1O[C@H]1C(=O)CC[C@H]4[C@@H](C2)N(C)CC[C@]314` [Hydrocodone, reference compound], for the setting “in vivo”, the Abdominal pain result is given as “Gastrointestinal: Abdominal pain (1% to less than 5%),”; the Constipation entry was “Constipation (3% to 11%), Nausea (7% to 10%), Vomiting (3% to”; the Difficulty swallowing entry is listed as “Gastrointestinal: Difficulty swallowing (less than 1%)”; the Dizziness result was “Neurologic: Dizziness (2% to 3%), Headache (2% to 4%),”. For the same compound, for the setting “in vivo”, the Fatigue result was “Other: Fatigue (1% to 4%)”; the Headache entry is reported as “Neurologic: Dizziness (2% to 3%), Headache (2% to 4%),”; the Hypotension entry is recorded as “Cardiovascular: Hypotension (less than 1%), Orthostatic”; the Opioid withdrawal result is listed as “Opioid withdrawal (less than 1%)”. Moreover, under “in vivo”, the Orthostatic hypotension entry is listed as “hypotension (less than 1%), Prolonged QT interval, Syncope”; the Peripheral edema result was “Cardiovascular: Peripheral edema (1% to less than 5%%)”; the Pruritus result is on record as “Dermatologic: Pruritus (0% to less than 5%)”; the “Serious side effect, Cardiovascular” value is reported as “hypotension (less than 1%), Prolonged QT interval, Syncope”. In addition, where the note is “in vivo”, the “Serious side effect, Neurologic” value is on record as “Neurologic: Raised intracranial pressure, Seizure”; the “Serious side effect, Other” value is on record as “Other: Drug withdrawal syndrome in neonate of dependent mother,”; the “Serious side effect, Respiratory” value is “Respiratory: Respiratory depression”; the Somnolence result is given as “Somnolence (1% to 5%), Tremor (3%)”. Also, under “in vivo”, the Spasm entry is given as “Musculoskeletal: Spasm (1% to less than 5%)”; the Tremor entry is recorded as “Somnolence (1% to 5%), Tremor (3%)”; the Upper respiratory infection entry was “Respiratory: Upper respiratory infection (1% to 3%)”; the “Urinary tract infectious disease” value is “Renal: Urinary tract infectious disease (1% to 5%)”. Moreover, the Xerostomia (in vivo) is reported as 6%), Xerostomia (1% to less than 5%).
Regarding `CCCCc1nc(Cl)c(CO)n1Cc1ccc(-c2ccccc2-c2nnn[nH]2)cc1` [Losartan (Cozaar)], under “in vivo”, the Anemia result is given as “Hematologic: Anemia (14%)”; the Chest pain entry is reported as “Cardiovascular: Chest pain (12%), Hypotension (7%)”; the Cough entry is on record as “Respiratory: Cough (10%)”; the Diarrhea result is “Gastrointestinal: Diarrhea (15%)”. Also, under “in vivo”, the Dizziness result is given as “Neurologic: Asthenia, Dizziness (3%)”; the Hyperkalemia entry was “Endocrine metabolic: Hyperkalemia (7%), Hypoglycemia (14%)”; the Hypoglycemia result is “Endocrine metabolic: Hyperkalemia (7%), Hypoglycemia (14%)”; the Hypotension result is given as “Cardiovascular: Chest pain (12%), Hypotension (7%)”.
On to `Clc1ccccc1CN1CCc2sccc2C1` [Ticlopidine], for which the Neutropenia (in vivo) was 2.4%.
Turning to `CN1CCc2nc(C(=O)N[C@@H]3C[C@@H](C(=O)N(C)C)CC[C@@H]3NC(=O)C(=O)Nc3ccc(Cl)cn3)sc2C1` [Edoxaban (Savaysa)], for the setting “in vivo”, the “Bleeding, Major” value was 3.1%; DVT or pulmonary embolism, 1.4%); the Hemorrhagic cerebral infarction entry was “fibrillation, 0.3%), Intracranial hemorrhage (Nonvalvular atrial”; the Interstitial lung disease is 0.2%); the Intracranial hemorrhage entry is on record as “fibrillation, 0.5%; DVT or pulmonary embolism, 0.1%)”. Moreover, for the setting “in vivo”, the “Liver function tests abnormal” value is “fibrillation, 4.8%; DVT or pulmonary embolism, 7.8%)” and the Rash entry is “Dermatologic: Rash (3.6% to 4.2%)”.
Regarding `Nc1cc(N2CCCCC2)nc(N)[n+]1[O-]` [Minoxidil], where the note is “in vivo”, the “Body fluid retention (incidence)” value is recorded as “Endocrine metabolic: Body fluid retention (7%), Hypernatremia”; the “Electrocardiogram abnormal (incidence)” value is recorded as “abnormal (60%), Pericardial effusion (3%), Pericarditis,”; the “Pericardial effusion (incidence)” value was “abnormal (60%), Pericardial effusion (3%), Pericarditis,”.
For the compound `CC[C@@H]([C@H](C)O)n1ncn(-c2ccc(N3CCN(c4ccc(OC[C@@H]5CO[C@@](Cn6cncn6)(c6ccc(F)cc6F)C5)cc4)CC3)cc2)c1=O` [Noxafil], under “frequency in words”, the Cholestasis result is “Hepatic: Cholestasis (rare), Liver failure (rare)” and the Liver failure entry is “Hepatic: Cholestasis (rare), Liver failure (rare)”. Also, where the note is “in vivo”, the Torsades de pointes result was “pointes (less than 5%)”. Also, where the note is “oropharyngeal candidiasis”, the Diarrhea entry was “oropharyngeal candidiasis, 10%; refractory oropharyngeal”; the Fever was 6%; the Headache is reported as 8%; the Nausea entry was “oropharyngeal candidiasis, 9%; refractory oropharyngeal”. Under “oropharyngeal candidiasis”, the Vomiting result is listed as “oropharyngeal candidiasis, 7%; refractory oropharyngeal”. Also, under setting [1], the Diarrhea is 13%, the Fever is listed as 34%, the Headache is 20% and the Nausea is given as 29%. The Vomiting result under setting [1] is “candidiasis, 28%)”.
Consider `CC[C@@H](C(N)=O)N1CCCC1=O` [Levetiracetam (Keppra)], for which, for the setting “in vivo”, the Asthenia result was “Neurologic: Asthenia (15%), Dizziness (5% to 9%), Headache”; the Cough result is “Respiratory: Cough (2% to 9%), Nasopharyngitis (7% to 15%)”; the “Decreased bone mineral density” value is listed as “Musculoskeletal: Decreased bone mineral density (70%), Neck pain”; the “Decreased white blood cell count” value is given as “blood cell count (2.4% to 3.2%), Eosinophilia (8.6%), Neutropenia”. For the same compound, where the note is “in vivo”, the Dizziness entry was “Neurologic: Asthenia (15%), Dizziness (5% to 9%), Headache”; the Eosinophilia result is “blood cell count (2.4% to 3.2%), Eosinophilia (8.6%), Neutropenia”; the Fatigue result is on record as “Other: Fatigue (10% to 11%)”; the Headache entry is “(14% to 19%)”. Moreover, for the setting “in vivo”, the Infectious disease result was “Immunologic: Infectious disease (13%)”; the Nasopharyngitis result is reported as “Respiratory: Cough (2% to 9%), Nasopharyngitis (7% to 15%)”; the Neck pain result was “(2% to 8%)”; the Neutropenia result is “(partial onset seizures, adults, 2.4%), Pancytopenia,”. For the setting “in vivo”, the Somnolence result is recorded as “Neurologic: Somnolence (8% to 45%)”; the Suicidal intent entry is “Psychiatric: Suicidal intent (0.5%), Suicide”; the Vomiting entry was “Gastrointestinal: Loss of appetite (3% to 8%), Vomiting (15%)”.
As to `O=C(NC[C@H]1CN(c2ccc(N3CCOCC3=O)cc2)C(=O)O1)c1ccc(Cl)s1` [Rivaroxaban (Xarelto)], where the note is “in vivo”, the Gastrointestinal hemorrhage result was “fibrillation, 3.1%)” and the Syncope result was “Cardiovascular: Syncope (1.2%)”.
`CCCC(=O)Nc1ccc(OCC(O)CNC(C)C)c(C(C)=O)c1` (stereo not drawn) [Acebutolol (Sectral)]: under “in vivo”, the Angina result is given as “Cardiovascular: Angina (2%), Bradyarrhythmia (2%), Heart failure”; the Bradyarrhythmia entry is “Cardiovascular: Angina (2%), Bradyarrhythmia (2%), Heart failure”; the Dizziness entry is given as “Neurologic: Dizziness (6%), Headache (6%)”; the Fatigue entry was “Other: Fatigue (11%)”. Moreover, where the note is “in vivo”, the Headache result is on record as “Neurologic: Dizziness (6%), Headache (6%)” and the Heart failure result is recorded as “(2%)”.
With `CC(C)(C)NCC(O)COc1cccc2c1CC(O)C(O)C2` (stereo not drawn) [Nadolol (Corgard)], for the setting “in vivo”, the Bradyarrhythmia entry is recorded as “Cardiovascular: Bradyarrhythmia (2%)”; the Cardiac dysrhythmia result is listed as “Cardiovascular: Atrioventricular block, Cardiac dysrhythmia (1%),”; the Dizziness result is listed as “Neurologic: Dizziness (2%)”; the Fatigue entry is “Other: Fatigue (2%)”. Besides, for the setting “in vivo”, the Heart failure result is “Heart failure (1%)” and the “Serious side effects, listed without incidence or only as rare” value was “Cardiovascular: Atrioventricular block, Cardiac dysrhythmia (1%),”.
